Like-named read-outs stand apart in the source and are kept apart here.
Tests used:
Gal4-RARα = experiment: Transactivation, chimerical receptor Gal4-RARα (transitory transfection of HeLa); assay type: cell-based; details: 100% = TTNPB 10^-8 M
[1] = test system: ERE-βGlob-Luc, MELN lineage (MCF-7); experiment: Anti-oestrogenic effect, MELN lineage activated by estradiol; assay type: cell-based, human; details: for anti-oestrogenic effect (in words): estradiol-activated MELN cells; for inhibition: 10^-6 M
How it was run: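 Run in duplicate on estradiol-activated (10^-9 M) MELN cells, MCF-7 stably transfected with ERE-βGlobin-luciferase reporter. Values are percentages of the estradiol response after deducting basal level, defined by 1 μM hydroxytamoxifen.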

[2] = test system: RAR-ERcassettes (RARα, RARβ, RARγ); experiment: Chimerical receptors RAR-ERcassettes, overall profile; assay type: cell-based
Text: (§1) The HeLa cells are co-transfected by a plasmid which codes for a retinoic receptor in which the C domain of bonding to the DNA is substituted by that of the receptor to RE oestrogens, and a plasmid which places the expression of the luciferase under the control of an ERE (Element of Response to Oestrogens). The expressed chimerical receptors are designated as RARα-ERcassette, RARβ-ERcassette, RARγ-ERcassette and RXRα-ERcassette. The A, B, D, E and F regions of the natural receptor are preserved as well as the transcriptional co-operation between the activation domains AF-1 and AF-2. These transitory transfection experiments follow the method of co-precipitation to calcium phosphate. The HeLa cells are co-transfected by […] of plasmid coding for the chimerical receptor, […] of reporter plasmid and […] of expression vector CMV-β-galactosidase used as an internal control of transfection. 24 hours after the transfection, the cells are incubated for 16 hours with the different effectors.
(§2) In this type of chimerical receptor, the C domain of bonding to the DNA of RAR is substituted by that of the receptor to the RE oestrogens. The protein obtained is close to the natural RAR receptor and preserves the transcriptional properties of the AF-1 and AF-2 domains. It modulates the transcription by means of an ERE. This RAR-ERcassette model allows one to observe a transcriptional response to a more physiological ligand.

RARα-ERcassette = experiment: Transactivation, chimerical receptor RARα-ERcassette (HeLa); assay type: cell-based; details: TTNPB 10^-8 M = 100
Text: as §1, §2

RARβ-ERcassette = experiment: Transactivation, chimerical receptor RARβ-ERcassette (HeLa); assay type: cell-based; details: TTNPB 10^-8 M = 100
How it was run: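 Chimeric RARα, β or γ retaining A, B, D, E and F regions but carrying the oestrogen receptor C domain drives luciferase through an ERE in transiently transfected HeLa cells. Treatment lasts 16 h.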

[3] = test system: T-47D human mammary cancer cells; experiment: MTT test, proliferation of T-47D; assay type: cell-based; details: for activity at 0.01 µM / activity at 1 µM / activity at 100 µM: Homo sapiens, T47D, 72 h, read-out: level of proliferation; for effect on cellular increase, T-47D (in words): MTT test
How it was run: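 Cells grown at 37° C in MEM/5% FCS were plated for 24 h, then treated at 10^-8, 10^-6 or 10^-4 M. Each condition was run in 6 duplicates.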

T-47D cells = experiment: Effect on oestrogen-induced proliferation of T-47D cells; assay type: cell-based, human
[4] = test system: Gal4-RAR (RARα, RARβ, RARγ); experiment: Chimerical receptors Gal4-RAR, overall profile; assay type: cell-based
[5] = Homo sapiens, MCF7, read-out: anti-oestrogenic effect, inhibition
[6] = Homo sapiens, MCF7, cells activated by 10^-9 M estradiol
[7] = Homo sapiens, MCF7, 10^-7 M, cells activated by 10^-9 M estradiol, read-out: anti-oestrogenic effect, inhibition
[8] = Homo sapiens, MCF7, 10^-8 M, cells activated by 10^-9 M estradiol, read-out: anti-oestrogenic effect, inhibition

Compound | GAL4-RAR RARα transactivation (Gal4-RARα; 10^-6 M) | GAL4-RAR RARα transactivation (Gal4-RARα; 10^-7 M) | GAL4-RAR RARα transactivation (Gal4-RARα; 10^-8 M) | inhibition at 0.1 µM [1, 5] | anti-oestrogenic effect (in words) [1] | RAR-ERcassette profile (in words) [2] | RAR-ERcassette RARα transactivation (RARα-ERcassette; 10^-6 M) | RAR-ERcassette RARα transactivation (RARα-ERcassette; 10^-7 M) | RAR-ERcassette RARα transactivation (RARα-ERcassette; 10^-8 M) | RAR-ERcassette RARβ transactivation (RARβ-ERcassette; 10^-6 M) | RAR-ERcassette RARβ transactivation (RARβ-ERcassette; 10^-7 M) | RAR-ERcassette RARβ transactivation (RARβ-ERcassette; 10^-8 M) | inhibition [1, 6] | inhibition at 0.1 µM [1, 7] | inhibition at 0.01 µM [1, 8] | activity at 100 µM ([3]; T-47D, 10^-4 M, control = 100%) | activity at 1 µM ([3]; T-47D, 10^-6 M, control = 100%) | activity at 0.01 µM ([3]; T-47D, 10^-8 M, control = 100%) | effect on cellular increase, T-47D (in words) [3] | effect on oestrogen-induced growth, T-47D (in words) (T-47D cells; estradiol 10^-9 M) | other results
Cc1cc2c(cc1C(=O)c1ccc(C(=O)O)cc1)C(C)(C)CCC2(C)C [LGD-CB14499, reference compound] | 17% | 4% | 1% | 0% | inactive | transcriptional power appears higher notably through the RARβ-ERcassette | 42% | 12% | 4% | 130% | 58% | 10% |  |  |  |  |  |  |  |  | inhibition at 1 µM [1, 5]: 0%; activity at 0.01 µM [3]: 88.2%; activity at 1 µM [3]: 82.7%; activity at 100 µM [3]: 1.3%
C/C(=C\c1ccc2c(c1)C(C)(C)CCC2(C)C)c1ccc(C(=O)Nc2nnn[nH]2)cc1 [CB73364] |  |  |  |  |  |  | 74% |  |  | 118% |  |  | 20 to 41% | 24% | 13% | 0% | 53% | 62% | inhibits the increase of the T-47D cells | exerts an effect comparable to TTNPB | 
CC(C=C/C=C(C)\C=C\C1=C(C)CCCC1(C)C)=CC(=O)O [CB13407, 9-cis retinoic acid, reference compound] |  |  |  | 35% |  | induce an over-expression of luciferase in comparison to the induction brought about by a synthetic compound (TTNPB) | 348% | 187% | 60% | 369% | 212% | 94% |  |  |  | 16.3% | 91.7% | 122% | stimulates the cellular increase at 10^-6 M and 10^-8 M |  | RAR-ERcassette RARα transactivation (RARα-ERcassette; 10^-9 M): 7%; RAR-ERcassette RARβ transactivation (RARβ-ERcassette; 10^-9 M): 16%; IC50 (T-47D cells; Homo sapiens, T47D, 168 h, read-out: anti-proliferation effect, T-47D IC50): 25.1 ± 1.4 nM
C/C(=C\c1cc2c(cc1C)C(C)(C)CCC2(C)C)c1ccc(C(=O)O)cc1 [CB71802] |  |  |  |  |  |  |  |  |  |  |  |  | 32 to 48% | 37% | 5% | 14.3% | 113% | 132% |  |  | inhibition at 1 µM (T-47D cells; Homo sapiens, T47D, 168 h, 1 μM (10^-6 M), 7 days, estradiol 10^-9 M, read-out: percentage inhibition of growth, T-47D): 72%
CC1=C(/C=C/C(C)=C/C=C/C(C)=C/C(=O)O)C(C)(C)CCC1 [CB16178, all-trans retinoic acid, reference compound] | 108% | 102% | 82% | 35% | reduces the cellular growth and the expression of oestrogen-dependent genes | induce an over-expression of luciferase in comparison to the induction brought about by a synthetic compound (TTNPB) | 443% | 249% | 127% | 475% | 270% | 128% |  |  |  | 1.8% | 52.6% | 77.2% | inhibit the cellular increase of the two mammary lineages at the concentrations tested |  | Gal-RAR agonist profile (in words) [4]: good RAR agonists; RAR-ERcassette RARα transactivation (RARα-ERcassette; 10^-9 M): 65%; RAR-ERcassette RARβ transactivation (RARβ-ERcassette; 10^-9 M): 93%
C/C(=C\c1ccc(C(=O)O)cc1)c1ccc2c(c1)C(C)(C)CCC2(C)C [TTNPB, reference compound] |  |  |  |  |  |  |  |  |  |  |  |  |  |  |  | 3.5% | 61.7% | 58.5% | inhibit the cellular increase of the two mammary lineages at the concentrations tested | stronger inhibiting effect than the natural ligands (all-trans RA and 9-cis RA) and than LGD1069 | inhibition at 0.01 µM [1, 5]: 30 to 41%; anti-oestrogenic effect, inhibition (of the order of) ([1]; MELN, estradiol 10^-9 M): ~40%; Gal-RAR agonist profile (in words) [4]: good RAR agonists

— patent US6265423A, “Aromatic polycyclic retinoid-type derivatives, method for preparing same, and use thereof for making pharmaceutical and cosmetic compositions” (priority 1996, dated 2001)
